Test [1] concerns the target T1, human Kv1.3 (Homo sapiens, UniProt P22001).
T1 construct: expressed in transfected cells; host or cells: stably transfected cells grown in medium for CHO cells
Briefly: Kv1.3 Autopatch electrophysiology (whole cell patch-clamp, inhibition of charge movement). Format: cell-based. The conditions noted are these: compound at 1 μM; cells stably transfected with human Kv1.3; room temperature; total charge during step to +30 mV relative to control; read-out: hKv1.3 % inh. The protocol: Kv1.3 Autopatch Electrophysiology Method
Compounds were tested on these cells using the AutoPatch technology in whole cell mode.
The external bathing solution contained (in mM): 150 NaCl, 10 KCl, 1 MgCl2, 3 CaCl2, 10 HEPES, pH 7.4 with NaOH. Patch pipettes were filled with an electrode solution of composition (in mM): 100 K-Gluconate, 20 KCl, 1 MgCl2, 1 CaCl2, 10 HEPES, 11 EGTA, 5 ATP-Na2, 2 Glutathione pH 7.2 with KOH.
Compounds were dissolved in DMSO (100%) and made up in the external bather at a concentration of 1 μM immediately prior to use. All experiments were conducted at room temperature.
A cell suspension (10 ml), with a density of 6×10^6 cells, was aliquoted into a 15 ml centrifuge tube and stored at 4° C. before use. Prior to use a tube was taken and centrifuged at 1000 rpm for 4 mins at room temperature. The supernatant was then discarded, leaving a cell pellet at the bottom of the tube. The pellet was then resuspended using 1 ml of cold (4° C.), filtered (0.22 μm), 0.05% BSA/bather solution (0.05 g BSA/100 ml bather). The bottom of the tube was manually agitated followed by gentle tituration. The cell suspension was then placed in the AutoPatch™ temperature controlled cell-hotel at 14° C. and regularly titurated.
A length of Teflon capillary tubing was dipped into the cell suspension solution, and a column of fluid was taken up by negative pressure. The column of fluid was in electrically connectivity with a Ag/AgCl reference electrode. Borosilicate glass patch pipettes (from 1.5 mm OD, thin-walled filamented, GC150-TF capillary glass, Harvard) were pulled using a DMZ pipette puller (Zeitz Instruments), and were back-filled using the internal pipette solution, being careful that no bubbles remained at the tip or in the body of the pipette. Patch pipettes typically had resistances of 2.5-3.5 MΩ. Once filled, the pipette tip and a proportion of the shaft (˜15 mm) were dipped into Sigmacote (Sigma). The recording pipettes were placed in a multiwell array and mounted on the AutoPatch™ machine. Automated patch-clamping and drug-application was initiated by the operator, but thereafter AutoPatch.exe continued the experiment providing that pre-set conditions and criteria were satisfied.
Whole cell patch-clamp recordings were made using the AutoPatch™ rig, which incorporated an EPC9 or EPC10 amplifier (HEKA, Germany) under control of Pulse software (v8.54 or v8.76, HEKA, Germany), a cell applicator, automated drug application system (DAS), valve controller (VF1) and a suction device all at room temperature. This equipment was completely under the control of AutoPatch.exe and operator intervention was only made when there was a requirement to refill the bather reservoirs or to prevent the loss of a cell due to a technical error.
Cells were continuously perfused with external solution at a flow rate of ˜2 ml/minute.
Electrophysiology voltage-step protocols and analysis of data was performed as follows. Data were sampled at 5 kHz, and filtered with a −3 dB bandwidth of 2.5 kHz. Cells were held at a voltage of −80 mV. Currents were evoked by a voltage step to +30 mV for 500 ms in duration applied every 15 s. Online analysis of the hKv1.3 current during the application of compounds was performed by the Pulse (v8.54 or v8.76, HEKA, Germany), Excel (Microsoft, USA) and AutoPatch™ software, with the total charge measured during the whole of voltage step. Inhibition of charge movement in the presence of drug was calculated relative to control.
On the technique in general: In patch-clamp work, channel activity is measured electrically.

Test [2] has as its target hKv1.5 (Homo sapiens, UniProt P22460). Briefly: Kv1.5 Autopatch electrophysiology (whole cell patch-clamp). Format: cell-based. Conditions: compound at 1 μM; room temperature (22-24° C.); total charge during step to 0 mV; read-out: hKv1.5 % inh. The protocol: Kv1.5 Autopatch Electrophysiology Method
The external bathing solution contained (in mM): 150 NaCl, 10 KCl, […], 3 MgCl2, 1 CaCl2, 10 HEPES, pH 7.4. Patch pipettes were filled with an electrode solution of composition (in mM): 160 KCl, 0.5 MgCl2, 10 HEPES, 1 EGTA, pH 7.4 with KOH.
Compounds were dissolved in DMSO (100%) and made up in the external bather at a concentration of 1 μM. All experiments were conducted at room temperature (22-24° C.).
A cell suspension (10 ml), with a density of 100,000 cells/ml, was aliquoted into a 15 ml centrifuge tube and transferred to an incubator (37° C., 5% CO2) for approximately one hour before use. Following 60 min incubation, a tube was taken and centrifuged at 1000 rpm for 4 mins at room temperature. 9.5 ml supernatant was thence discarded, leaving a cell pellet at the bottom of the tube. The pellet was then resuspended using 100 μl of cold (4° C.), filtered (0.22 μm), 0.2% BSA/bather solution (0.02 g BSA/10 ml bather). The bottom of the tube was manually agitated gently until the solution became cloudy with cells. The 100 μl cell resuspension solution was then stored on the bench at 4° C. (using a Peltier-based temperature control device) until used.
A length of capillary glass (1B150F-4, WPI) was dipped into the cell suspension solution, such that ˜3 cm column of fluid was taken up by capillary action. A Ag/AgCl wire was dropped into the non-dipped end of the capillary also. The outside of the solution-filled end of the capillary was then dried and the capillary was loaded into the AutoPatch™.
Borosilicate glass patch pipettes (from 1.5 mm OD, thin-walled filamented, GC150-TF capillary glass, Harvard) were pulled using a DMZ pipette puller (Zeitz Instruments), and were back-filled using the internal pipette solution, being careful that no bubbles remain at the tip or in the body of the pipette. Patch pipettes typically had resistances of 2.3-3.5 MΩ. Once filled, the pipette tip and a proportion of the shaft (˜15 mm) were dipped into Sigmacote (Sigma). The recording pipette was then loaded into the AutoPatch™ Automated patch-clamping was initiated by the operator, but thereafter AutoPatch.exe continued the experiment providing that pre-set conditions and criteria were satisfied.
Whole cell patch-clamp recordings were made using the AutoPatch™ rig, which incorporated an EPC9 amplifier (HEKA, Germany) under control of Pulse software (v8.54, HEKA, Germany), a motion controller with 2 translators (Newport, UK), valve controller (VF1) and a c-level suction device all at room temperature (22-24° C.). This equipment was completely under the control of AutoPatch.exe and operator intervention was only made when there was a requirement to refill the drug reservoirs or to prevent the loss of a cell due to a technical error. Cells with an Rseries greater than 18 MΩ were discounted from the experiment.
Qualification stages prior to perfusion and drug application ensured that the observed current met the criteria for the experiment. Only those cells with an IK>500 pA were used for experiments. Cells were continuously perfused with external solution at a flow rate of 1.8-2 ml/minute. […] Online analysis of the hKv1.5 current during the application of compounds was performed by the AutoPatch™ software. Voltage-step protocols and analysis of data was performed as described for conventional electrophysiology.
Electrophysiology voltage-step protocols and analysis of data was performed as follows. Data was sampled at 5 kHz, and filtered with a −3 dB bandwidth of 2.5 kHz. Cells were held at a voltage of −80 mV. Currents were evoked to a voltage step for 1000 ms in duration at 0 mV every 5 s. Currents were analysed using Pulsefit software (v8.54, HEKA, Germany), with the total charge measured during the whole of the voltage step. All other plots were produced using Igor Pro (WaveMetrics).

T1 sequence (P22001 whole entry): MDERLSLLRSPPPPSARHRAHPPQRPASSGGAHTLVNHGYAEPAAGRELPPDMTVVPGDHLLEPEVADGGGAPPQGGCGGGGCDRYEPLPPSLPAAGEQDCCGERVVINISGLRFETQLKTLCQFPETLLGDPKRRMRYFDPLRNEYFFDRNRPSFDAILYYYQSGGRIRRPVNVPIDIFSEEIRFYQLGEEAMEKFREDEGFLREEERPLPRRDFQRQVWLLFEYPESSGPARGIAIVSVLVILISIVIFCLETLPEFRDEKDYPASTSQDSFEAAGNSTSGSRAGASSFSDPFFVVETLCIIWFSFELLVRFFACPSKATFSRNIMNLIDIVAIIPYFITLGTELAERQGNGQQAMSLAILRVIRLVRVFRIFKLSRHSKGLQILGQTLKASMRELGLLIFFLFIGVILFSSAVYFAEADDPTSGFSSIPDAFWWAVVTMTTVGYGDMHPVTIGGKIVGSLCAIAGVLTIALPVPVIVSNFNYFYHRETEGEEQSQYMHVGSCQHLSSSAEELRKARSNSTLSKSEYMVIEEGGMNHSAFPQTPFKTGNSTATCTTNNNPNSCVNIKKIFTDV
hKv1.5, sequence (P22460 whole entry): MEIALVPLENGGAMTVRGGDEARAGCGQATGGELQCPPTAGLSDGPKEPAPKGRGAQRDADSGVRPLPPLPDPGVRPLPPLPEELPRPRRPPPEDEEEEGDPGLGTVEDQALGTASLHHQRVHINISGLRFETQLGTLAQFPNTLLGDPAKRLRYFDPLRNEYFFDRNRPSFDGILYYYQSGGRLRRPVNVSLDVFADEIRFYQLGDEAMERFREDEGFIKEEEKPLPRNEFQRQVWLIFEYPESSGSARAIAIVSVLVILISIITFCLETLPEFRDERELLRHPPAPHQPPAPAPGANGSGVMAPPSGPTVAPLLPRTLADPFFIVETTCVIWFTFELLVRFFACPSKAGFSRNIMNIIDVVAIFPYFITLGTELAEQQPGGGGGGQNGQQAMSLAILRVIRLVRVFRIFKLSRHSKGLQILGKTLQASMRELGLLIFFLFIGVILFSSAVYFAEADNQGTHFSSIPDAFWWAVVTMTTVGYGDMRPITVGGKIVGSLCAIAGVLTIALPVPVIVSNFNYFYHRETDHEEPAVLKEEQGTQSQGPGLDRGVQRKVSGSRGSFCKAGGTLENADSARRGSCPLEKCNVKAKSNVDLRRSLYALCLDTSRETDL

With `O=C(c1ccc(N(Cc2ccc(Cl)cc2)S(=O)(=O)c2ccccc2)cc1)N1CCN(c2ccccc2)CC1` [Example 1, N-(4-Chloro-benzyl)-N-[4-(4-phenyl-piperazine-1-carbonyl)-phenyl]-benzenesulfonamide], the inhibition at 1 µM in test [1] is 91%; in test [2], 94%.
As for `Cn1cnc(S(=O)(=O)N(Cc2ccccc2)c2ccc(CN3CCN(c4ccccc4)CC3)cc2)c1` [Example 8, 1-Methyl-1H-imidazole-4-sulfonic acid benzyl-[4-(4-phenyl-piperazin-1-ylmethyl)-phenyl]-amide], the values for the inhibition at 1 µM in test [1] and in test [2] were 90% and 56.7%, respectively.
With `O=C(c1ccc(N(Cc2ccccc2)S(=O)(=O)c2ccccc2)cc1)N1CCN(c2ccccc2)CC1` [Example 9, N-Benzyl-N-[4-(4-phenyl-piperazine-1-carbonyl)-phenyl]-benzenesulfonamide], the inhibition at 1 µM was 99% in test [1] and 64.5% in test [2].
In the same order, the values of `O=C(c1ccc(N(Cc2ccccc2Cl)S(=O)(=O)c2ccccc2)cc1)N1CCN(c2ccccc2)CC1` [Example 10, N-(2-Chloro-benzyl)-N-[4-(4-phenyl-piperazine-1-carbonyl)-phenyl]-benzenesulfonamide] are 86% and 47.9%.
Consider `O=C(c1ccc(N(Cc2cccc(Cl)c2)S(=O)(=O)c2ccccc2)cc1)N1CCN(c2ccccc2)CC1` [Example 11, N-(3-Chloro-benzyl)-N-[4-(4-phenyl-piperazine-1-carbonyl)-phenyl]-benzenesulfonamide], for which the inhibition at 1 µM came out at 92% in test [1] and 73.6% in test [2].
For `O=C(c1ccc(N(Cc2ccc(F)cc2)S(=O)(=O)c2ccccc2)cc1)N1CCN(c2ccccc2)CC1` [Example 12, N-(4-Fluoro-benzyl)-N-[4-(4-phenyl-piperazine-1-carbonyl)-phenyl]-benzenesulfonamide], in that order: 93% and 56.3%.
Regarding `COc1ccc(S(=O)(=O)N(Cc2ccccc2)c2ccc(C(=O)N3CCN(c4ccccc4)CC3)cc2)cc1OC` [Example 14, N-Benzyl-3,4-dimethoxy-N-[4-(4-phenyl-piperazine-1-carbonyl)-phenyl]-benzenesulfonamide], the inhibition at 1 µM was determined as 69% in test [1] and 61.3% in test [2].
For `O=C(c1ccc(N(Cc2ccccc2)S(=O)(=O)c2ccc3c(c2)OCCO3)cc1)N1CCN(c2ccccc2)CC1` [Example 15, 2,3-Dihydro-benzo[1,4]dioxine-6-sulfonic acid benzyl-[4-(4-phenyl-piperazine-1-carbonyl)-phenyl]-amide], in that order: 66% and 80.4%.
For the molecule `Cc1ccc(S(=O)(=O)N(Cc2ccccc2)c2ccc(C(=O)N3CCN(c4ccccc4)CC3)cc2)cc1` [Example 16, N-Benzyl-4-methyl-N-[4-(4-phenyl-piperazine-1-carbonyl)-phenyl]-benzenesulfonamide], the values for the inhibition at 1 µM in test [1] and in test [2] were 77% and 48.1%, respectively.
Turning to `O=C(c1ccc(N(Cc2ccccc2)S(=O)(=O)c2cccs2)cc1)N1CCN(c2ccccc2)CC1` [Example 17, Thiophene-2-sulfonic acid benzyl-[4-(4-phenyl-piperazine-1-carbonyl)-phenyl]-amide], the inhibition at 1 µM in test [1] amounted to 34%; in test [2], 47.3%.
For `O=C(c1ccc(N(Cc2ccccc2)S(=O)(=O)c2ccsc2)cc1)N1CCN(c2ccccc2)CC1` [Example 18, Thiophene-3-sulfonic acid benzyl-[4-(4-phenyl-piperazine-1-carbonyl)-phenyl]-amide], in that order: 80% and 82.9%.
Regarding `O=C(c1ccc(N(Cc2ccccc2)S(=O)(=O)c2ccc(F)cc2)cc1)N1CCN(c2ccccc2)CC1` [Example 19, N-Benzyl-4-fluoro-N-[4-(4-phenyl-piperazine-1-carbonyl)-phenyl]-benzenesulfonamide], the inhibition at 1 µM in test [1] was 83%; in test [2] it was 54.6%.
For the molecule `O=C(c1ccc(N(Cc2ccccc2)S(=O)(=O)c2ccccc2F)cc1)N1CCN(c2ccccc2)CC1` [Example 20, N-Benzyl-2-fluoro-N-[4-(4-phenyl-piperazine-1-carbonyl)-phenyl]-benzenesulfonamide], the inhibition at 1 µM in test [1] was 82%; in test [2], 88.8%.
Regarding `O=C(c1ccc(N(Cc2ccccc2)S(=O)(=O)c2cccc(F)c2)cc1)N1CCN(c2ccccc2)CC1` [Example 21, N-Benzyl-3-fluoro-N-[4-(4-phenyl-piperazine-1-carbonyl)-phenyl]-benzenesulfonamide], the inhibition at 1 µM worked out at 70% in test [1] and 70.9% in test [2].
In the same order, the values of `N#Cc1cccc(S(=O)(=O)N(Cc2ccccc2)c2ccc(C(=O)N3CCN(c4ccccc4)CC3)cc2)c1` [Example 23, N-Benzyl-3-cyano-N-[4-(4-phenyl-piperazine-1-carbonyl)-phenyl]-benzenesulfonamide] are 79% and 93.1%.

Source of the values: patent US8258138B2, “Potassium channel blockers” (Xention Limited, priority 2008, dated 2012).
